From US11179399B2, “6-heterocyclyl-4-morpholin-4-ylpyridine-2-one compounds useful for the treatment of cancer and diabetes” (Sprint Bioscience AB, priority 2016, dated 2021) come the findings set out here.

In assay [1] the test system is autophagy in HOS cells (GFP-LC3). In words: High content screening autophagy assay (GFP-LC3 foci). The class given is cell-based, Human. Particulars: Homo sapiens, HOS, 6 h, HOS cells with GFP-LC3, autophagy activated by KU-0063794 500 nM with Bafilomycin A1 5 nM, foci area per cell, read-out: Median IC50 (uM) Cellular assay. Here is the method: Human osteosarcoma cells (HOS) stably expressing a Green Fluorescent Protein (GFP) tagged LC3 (GFP-LC3) were used to determine the inhibitory effect on autophagy of proprietary compounds. For that purpose, autophagy was activated by using the mTOR inhibitor KU-0063794 at 500 nM in the presence of Bafilomycin A1 (Sigma-Aldrich) at 5 nM. Shortly, cells were plated overnight in clear bottom 96-well plates in DMEM-High Modified media (Hi-Clone Cat #SH30285.01). At the start of the experiment, the media was removed and replaced with fresh media containing the mTOR inhibitor, Bafilomycin A1 and the vehicle or a test compound as indicated. After 6 hours the media was removed, cells were washed twice with ice-cold phosphate buffered saline (PBS) and fixed with 4% paraformaldehyde for 20 minutes at room temperature. Then the cells were washed twice with ice-cold PBS before adding Hoechst 33342 at 1 μg/ml in PBS for nuclear staining. After incubation overnight at 4° C., cells were washed once with PBS to remove the excess of dye and 100 μl of PBS was added to each well. Images were acquired at 20× magnification, 6 images per well, using the ImageXpress automated microscope (Molecular Devices Inc.) and analyzed with MetaXpress software to identify LC3-GFP foci. Foci area per cell values were used to generate dose response curves and IC50 values were calculated using the non-linear fitting analysis in GraphPad Prism software.

The target of a further assay is Vps34 enzyme (Homo sapiens (Human), UniProt Q8NEB9). Kind of assay: Vps34 biochemical assay (Adapta kinase assay). The conditions noted are these: 20 μM ATP and 200 μM PI:PS in substrate mix, 1 h at room temperature, read-out: Median IC50 uM Adapta. Here is the method: Dilution series of compounds of the invention were prepared in DMSO at 100 times the final assay concentration (n1=n0/3 in 10 points). The compounds were further diluted to 4 times the assay concentration in assay buffer (Life technologies buffer Q, PV5125, diluted 5 times supplemented with 2 mM DTT and 2 mM MnCl2). 2.5 μl of the diluted compounds were added to a 384 well assay plate followed by 2.5 μl of 16.5 nM Vps34 enzyme (Life technologies, PV5126). Enzyme and compounds were pre-incubated at rt for 15 min. Then 5 μl of substrate mix containing 20 μM ATP (Life technologies, PV3227) and 200 μM PI:PS substrate (Life technologies, PV5122) in assay buffer was added to the wells containing compound and enzyme. Mixing was performed by pipetting several times. The reaction was incubated at room temperature for 1 h. Then 5 μl stop-detection mix, prepared as described in the Adapta kinase assay kit instructions (Life technologies, PV5099) containing Adapta Eu-anti-ADP antibody (2.3 nM), Alexa Fluor 647 ADP tracer (9 nM) and EDTA (30 mM) in TR-FRET buffer, was added to quench the reaction. Mixing was performed by pipetting several times. The assay plate was then incubated at room temperature for 30 min and read with Artemis micro plate reader. Percent inhibition of the compounds as compared to DMSO treated control samples was calculated. By the use of Dotmatics software compound concentration versus percent inhibition was fitted to generate IC50 values.

Usually IC50 stands for the concentration at which inhibition is half-maximal.

Molecules are shown by their SMILES.

Vps34 enzyme, sequence (Q8NEB9 whole entry): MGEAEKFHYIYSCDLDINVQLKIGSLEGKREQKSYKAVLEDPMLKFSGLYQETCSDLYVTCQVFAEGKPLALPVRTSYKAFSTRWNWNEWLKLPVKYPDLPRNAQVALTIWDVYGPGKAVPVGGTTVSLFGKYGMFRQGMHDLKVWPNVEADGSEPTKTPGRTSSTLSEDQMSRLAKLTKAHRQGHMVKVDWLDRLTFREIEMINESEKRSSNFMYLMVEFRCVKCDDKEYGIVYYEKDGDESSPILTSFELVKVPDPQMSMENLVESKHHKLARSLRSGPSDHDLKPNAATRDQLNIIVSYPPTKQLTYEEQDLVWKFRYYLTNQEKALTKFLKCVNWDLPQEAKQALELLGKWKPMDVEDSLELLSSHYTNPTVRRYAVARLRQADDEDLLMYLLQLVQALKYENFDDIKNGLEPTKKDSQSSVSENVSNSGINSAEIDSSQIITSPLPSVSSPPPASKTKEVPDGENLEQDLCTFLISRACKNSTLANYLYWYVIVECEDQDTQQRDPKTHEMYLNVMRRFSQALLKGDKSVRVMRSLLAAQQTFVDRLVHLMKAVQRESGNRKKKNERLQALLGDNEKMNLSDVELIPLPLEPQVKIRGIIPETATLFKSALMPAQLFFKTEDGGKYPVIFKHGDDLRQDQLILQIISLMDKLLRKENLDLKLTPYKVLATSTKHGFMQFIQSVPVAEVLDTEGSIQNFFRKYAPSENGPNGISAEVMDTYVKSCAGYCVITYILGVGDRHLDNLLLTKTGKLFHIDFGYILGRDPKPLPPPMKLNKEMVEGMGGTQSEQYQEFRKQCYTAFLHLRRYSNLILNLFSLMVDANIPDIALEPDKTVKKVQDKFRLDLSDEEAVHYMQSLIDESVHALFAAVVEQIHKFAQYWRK

Take `C[C@@H]1COCCN1c1cc(N2CCC[C@@H]2C(F)(F)F)[nH]c(=O)c1` [Example 35, 4-[(3R)-3-methylmorpholin-4-yl]-6-[(2R)-2-(trifluoromethyl)pyrrolidin-1-yl]-1H-pyridin-2-one]: the IC50 in assay [1] was determined as 0.7 µM; on Vps34 enzyme, 0.009 µM.
The like results for `C[C@@H]1COCCN1c1cc(N2CCCCC2C(F)(F)F)[nH]c(=O)c1` (single isomer, unassigned) [Example 25_1] were, in that order, 0.03 µM and 0.002 µM.
Consider `C[C@@H]1COCCN1c1cc(N2CCOCC2C(F)(F)F)[nH]c(=O)c1` (single isomer, unassigned) [Example 43_1], for which the IC50 in assay [1] stood at 0.03 µM; at Vps34 enzyme, 0.003 µM.
For `C[C@@H]1COCCN1c1cc(N2CCCC2c2ccccc2)[nH]c(=O)c1` (single isomer, unassigned) [Example 18_2] the same measures were 1 µM and 0.02 µM.
Consider `COc1cccc(C2CCCN2c2cc(N3CCOC[C@H]3C)cc(=O)[nH]2)c1` (single isomer, unassigned) [Example 17_2], for which the 50% inhibitory concentration (IC50) was found to be 0.3 µM in assay [1] and 0.006 µM at Vps34 enzyme.
On to `C[C@@H]1COCCN1c1cc(N2CCCC[C@@H]2C(F)(F)F)n(C)c(=O)c1` [Example 41, 1-methyl-4-[(3R)-3-methylmorpholin-4-yl]-6-[(2R)-2-(trifluoromethyl)-1-piperidyl]pyridin-2-one], for which the IC50 in assay [1] came out at 0.08 µM; on Vps34 enzyme, 0.01 µM.
`C[C@@H]1COCCN1c1cc(N2CCCCC2C(F)(F)F)[nH]c(=O)c1` (mixture of isomers) [Example 25, (R) and (S) 4-[(3R)-3-methylmorpholin-4-yl]-6-[2-(trifluoromethyl)-1-piperidyl]-1H-pyridin-2-one]: the half-maximal inhibitory concentration (IC50) came out at 0.02 µM in assay [1] and 0.004 µM at Vps34 enzyme.
On to `C[C@@H]1COCCN1c1cc(N2CCCC[C@@H]2c2ccccc2)[nH]c(=O)c1` [Example 30, 4-[(3R)-3-methylmorpholin-4-yl]-6-[(2R)-2-phenyl-1-piperidyl]-1H-pyridin-2-one], for which the 50% inhibitory concentration (IC50) in assay [1] was 0.6 µM; on Vps34 enzyme it was 0.008 µM.
In the case of `C[C@@H]1COCCN1c1cc(N2CCCC2c2cccc(Cl)c2)[nH]c(=O)c1` (mixture of isomers) [Example 36, (R) and (S) 6-[2-(3-chlorophenyl)pyrrolidin-1-yl]-4-[(3R)-3-methylmorpholin-4-yl]-1H-pyridin-2-one], the 50% inhibitory concentration (IC50) in assay [1] was found to be 0.03 µM; on Vps34 enzyme, 0.02 µM.
Regarding `O=c1cc(N2CCOCC2)cc(N2CCC[C@H]2c2ccccc2)[nH]1` [Example 3, 4-morpholino-6-[(2S)-2-phenylpyrrolidin-1-yl]-1H-pyridin-2-one], the IC50 was determined as 13 µM in assay [1] and 0.2 µM on Vps34 enzyme.
As to `C[C@@H]1COCCN1c1cc(N2CCCC2c2cccc(F)c2)[nH]c(=O)c1` (mixture of isomers) [Example 13, (R) and (S) 6-[2-(3-fluorophenyl)pyrrolidin-1-yl]-4-[(3R)-3-methylmorpholin-4-yl]-1H-pyridin-2-one], the half-inhibitory concentration (IC50) was determined as 2 µM in assay [1] and 0.02 µM on Vps34 enzyme.
Consider `CC1COCCN1c1cc(N2CCOC[C@H]2C)cc(=O)[nH]1` (single isomer, unassigned) [Example 24_1], for which the IC50 is 1.4 µM in assay [1] and 0.01 µM at Vps34 enzyme.
In the case of `C[C@@H]1COCCN1c1cc(N2CCCC2c2cccc(Cl)c2)[nH]c(=O)c1` (single isomer, unassigned) [Example 36_1], the IC50 came to 0.4 µM in assay [1] and 0.01 µM at Vps34 enzyme.
As to `COc1cccc(C2CCCCN2c2cc(N3CCOC[C@H]3C)cc(=O)[nH]2)c1` (single isomer, unassigned) [Example 44_1], the IC50 in assay [1] was determined as 0.2 µM; at Vps34 enzyme it was 0.001 µM.
With `CC1COCCN1c1cc(C2=CCOCC2)[nH]c(=O)c1` (centres unmarked) [Example 5, 6-(3,6-dihydro-2H-pyran-4-yl)-4-(3-methylmorpholin-4-yl)-1H-pyridin-2-one], the figures for the 50% inhibitory concentration (IC50) (in assay [1]; on Vps34 enzyme) were 15 µM and 0.2 µM, respectively.
In the case of `CC(=O)N1CCN(c2cc(N3CCOC[C@H]3C)cc(=O)[nH]2)C(C(F)(F)F)C1` (stereo partly drawn) [Example 45, 6-[4-acetyl-2-(trifluoromethyl)piperazin-1-yl]-4-[(3R)-3-methylmorpholin-4-yl]-1H-pyridin-2-one], the half-maximal inhibitory concentration (IC50) in assay [1] is 0.1 µM; on Vps34 enzyme, 0.003 µM.
